According to paper PMC5026167, “Characterizing Active Site Conformational Heterogeneity along the Trajectory of an Enzymatic Phosphoryl Transfer Reaction” (Angewandte Chemie (International Ed. in English), 2016):
Read-outs that look alike come from different tables or passages of the source.

What was measured:
[1] = biological target: T1, UmpK (UMP/CMP kinase) (Dictyostelium discoideum, UniProt P20425); assay: stopped-flow nucleotide exchange with MANT-AP5A-MANT; assay type: binding; conditions: dissociation rate of ADP and UMP together, no metal fluoride
T1 construct: gene pyrK; recombinant, expressed and purified as in Supporting Information; details not in main text

[2] = biological target: T1, UmpK (UMP/CMP kinase); assay: biochemical; parameters: fluorescence titration, equilibrium binding / displacement of fluorescent MANT-ADP
Excerpt: First, we defined and characterized stable states along the reaction coordinate (Supporting Information). One reference state is nucleotide‐free (apo) UmpK (Figure 1 a), where the catalytic side‐chains are expected to be very flexible because of the absence of any ligand, thus giving an indication of the upper limit of conformational entropy. An ideal reference for a substrate/product‐bound state is provided by UmpK in complex with the bi‐substrate inhibitor AP5U (Supporting Information; Figure 1 b), where a phosphate group covalently links ATP and UMP such that nucleotide‐like binding occurs but without turnover.11 The overall structure of UmpK in complex with AP5U is essentially identical to other nucleotide‐bound structures available (Figure 1 b). Despite minor differences in the lid loop conformation and the aliphatic part of the R137 side‐chain, the position of the central guanidino groups is nearly identical. […] The transition state of the phosphoryl transfer reaction is well‐represented by UmpK in complex with the TSA formed by ADP, UMP/CMP and an AlFx molecule that mimics the phosphoryl group being transferred (Figure 1 c).7 To further confirm the formation of a stable complex that captures the transition state structure, we performed functional studies including nucleotide exchange kinetics measurements in the presence and absence of aluminium fluoride (Figures 1 f and S1/S2, Table S1).  Figure 1 a) Nucleotide‐free UmpK (H. sapiens, PDB: 1TEV10). b) Overlay of UmpK in complex with the bi‐substrate inhibitor AP5U, (red, D. discoideum, PDB: 1UKE11), and in complex with ADP and CMP (orange, D. discoideum, PDB: 2UKD7). c) UmpK in complex with the TSA ADP:AlFx:CMP (D. discoideum, PDB: 3UKD7). In (a–c) arginine side‐chains are shown in yellow (numbering refers to UmpK from D. discoideum). d) Schematic representation of the reaction catalyzed by UmpK and the states studied here: nucleotide‐free (green), substrate/product‐bound (red), and the transition state (blue). e) AP5U binding to UmpK monitored by equilibrium displacement of fluorescent MANT‐ADP. Binding of AP5U (K D≤1.0 nM) generates a stable substrate/product‐like state. f) Nucleotide exchange kinetics measured by stopped flow. UmpK incubated with UMP and ADP in the presence of 0.5 mM AlFx (blue), 3 mM MgFx (grey) or in the absence of any fluoride (red) was mixed rapidly with the competing ligand MANT‐AP5A‐MANT. […] 3 Materials and Methods: 1. Mutagenesis, protein expression and purification: Arginine to lysine mutations were introduced into UmpK from Dictyostelium discoideum using the QuikChange® protocol. DNA sequencing was performed to verify the eight introduced mutations. Unlabeled [U-1 H,12C,14N] UmpK was expressed in LB medium, uniformly 15N-/ 13C-labeled [U-13C,15N] UmpK was expressed in M9 minimal medium using 2 g/L U-13C-glucose and 1 g/L 15NH4Cl as the sole carbon and nitrogen sources, respectively. Selectively labelled [13C,15N-Arg; U-12C,14N] UmpK and [13C,15N-Arg+Lys; U-12C,14N] UmpK with only (i) arginine residues or (ii) lysine and arginine residues isotopically labelled, respectively, were expressed in M9 minimal medium supplemented (i) 100 mg/L 15N-/ 13C-arginine or (ii) 100 mg/L 15N-/ 13C-arginine and 15N-/ 13C-lysine. All UmpK variants were purified as described previously using Blue Sepharose affinity chromatography and SourceQ anion exchange chromatography.

[3] = biological target: T1, UmpK (UMP/CMP kinase); assay: biochemical; parameters: fluorescence titration of nucleotide binding to UmpK (MANT-ADP fluorescence / displacement); conditions: Mg-free
Excerpt: First, we defined and characterized stable states along the reaction coordinate (Supporting Information). One reference state is nucleotide‐free (apo) UmpK (Figure 1 a), where the catalytic side‐chains are expected to be very flexible because of the absence of any ligand, thus giving an indication of the upper limit of conformational entropy. An ideal reference for a substrate/product‐bound state is provided by UmpK in complex with the bi‐substrate inhibitor AP5U (Supporting Information; Figure 1 b), where a phosphate group covalently links ATP and UMP such that nucleotide‐like binding occurs but without turnover.11 The overall structure of UmpK in complex with AP5U is essentially identical to other nucleotide‐bound structures available (Figure 1 b). Despite minor differences in the lid loop conformation and the aliphatic part of the R137 side‐chain, the position of the central guanidino groups is nearly identical. […] The transition state of the phosphoryl transfer reaction is well‐represented by UmpK in complex with the TSA formed by ADP, UMP/CMP and an AlFx molecule that mimics the phosphoryl group being transferred (Figure 1 c).7 To further confirm the formation of a stable complex that captures the transition state structure, we performed functional studies including nucleotide exchange kinetics measurements in the presence and absence of aluminium fluoride (Figures 1 f and S1/S2, Table S1).  Figure 1 a) Nucleotide‐free UmpK (H. sapiens, PDB: 1TEV10). b) Overlay of UmpK in complex with the bi‐substrate inhibitor AP5U, (red, D. discoideum, PDB: 1UKE11), and in complex with ADP and CMP (orange, D. discoideum, PDB: 2UKD7). c) UmpK in complex with the TSA ADP:AlFx:CMP (D. discoideum, PDB: 3UKD7). In (a–c) arginine side‐chains are shown in yellow (numbering refers to UmpK from D. discoideum). d) Schematic representation of the reaction catalyzed by UmpK and the states studied here: nucleotide‐free (green), substrate/product‐bound (red), and the transition state (blue). e) AP5U binding to UmpK monitored by equilibrium displacement of fluorescent MANT‐ADP. Binding of AP5U (K D≤1.0 nM) generates a stable substrate/product‐like state. f) Nucleotide exchange kinetics measured by stopped flow. UmpK incubated with UMP and ADP in the presence of 0.5 mM AlFx (blue), 3 mM MgFx (grey) or in the absence of any fluoride (red) was mixed rapidly with the competing ligand MANT‐AP5A‐MANT.

[4] = 5 mM MgCl2, alone, read-out: UmpK wild-type (5 mM MgCl2) Alone
[5] = with CMP, 5 mM MgCl2, 250 uM second nucleotide present, read-out: UmpK wild-type (5 mM MgCl2) in the presence of 250 uM second nucleotide
[6] = with ADP, 5 mM MgCl2, 250 uM second nucleotide present, read-out: UmpK wild-type (5 mM MgCl2) in the presence of 250 uM second nucleotide
[7] = with 250 uM ADP, read-out: wild-type (Mg-free) in presence of 250 uM ADP

T1 sequence (P20425 whole entry): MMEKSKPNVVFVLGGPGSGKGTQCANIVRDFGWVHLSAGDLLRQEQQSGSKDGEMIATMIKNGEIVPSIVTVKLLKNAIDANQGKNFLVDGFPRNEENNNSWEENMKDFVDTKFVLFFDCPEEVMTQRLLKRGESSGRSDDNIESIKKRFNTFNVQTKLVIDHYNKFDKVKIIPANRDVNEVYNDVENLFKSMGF

Row | Compound | k fast ([1]; UMP present) | Kd [2, 4] | Kd [2, 5] | Kd ([3]; with 250 uM CDP, read-out: wild-type (Mg-free) in presence of 250 uM CDP) | Kd ([3]; with 250 uM CMP, read-out: wild-type (Mg-free) in presence of 250 uM CMP) | Kd [2, 6] | Kd [3, 7] | k fast ([1]; ADP present)
1 | Nc1ncnc2c1ncn2[C@@H]1O[C@H](COP(=O)(O)OP(=O)(O)O)[C@@H](O)[C@H]1O [ADP] | ~ 60 s^-1 | 80 ± 2 µM | 10 ± 1 µM | 49 ± 0.5 µM |  |  |  | 
2 | Nc1ncnc2c1ncn2[C@@H]1O[C@H](COP(=O)(O)OP(=O)(O)OP(=O)(O)O)[C@@H](O)[C@H]1O [ATP] |  | 51 ± 2 µM | 7.3 ± 0.4 µM |  | 68 ± 3 µM |  |  | 
3 | Nc1ccn([C@@H]2O[C@H](COP(=O)(O)OP(=O)(O)O)[C@@H](O)[C@H]2O)c(=O)n1 [CDP] |  | 66 ± 11 µM |  |  |  | 17 ± 3 µM | 64 ± 6 µM | 
4 | Nc1ccn([C@@H]2O[C@H](COP(=O)(O)O)[C@@H](O)[C@H]2O)c(=O)n1 [CMP] |  | 77 ± 11 µM |  |  |  | 23 ± 3 µM | 205 ± 20 µM | 
5 | O=c1ccn([C@@H]2O[C@H](COP(=O)(O)OP(=O)(O)O)[C@@H](O)[C@H]2O)c(=O)[nH]1 [UDP] |  | 600 ± 70 µM |  |  |  | 60 ± 14 µM | 400 ± 45 µM | 
6 | O=c1ccn([C@@H]2O[C@H](COP(=O)(O)O)[C@@H](O)[C@H]2O)c(=O)[nH]1 [UMP] |  |  |  |  |  |  |  | ~ 60 s^-1
